The structures appear in SMILES notation.

Broadly, the melting point is the temperature of the solid-liquid transition. `Cc1cc(Br)c(O)c(Br)c1`: the melting point was 50 °C. Next, `NC(=O)c1ccc(CC(=O)c2ccc(Cl)cc2)cc1`: 221 to 223 °C; `CCC1(C2CCC(OC)CC2)C(=O)NC(=O)NC1=O` (stereo not given): 239 to 240 °C; `Nc1ccccc1-c1cc2ccccc2[nH]1`: 153 °C.

On to `CC(=O)Oc1ccc(C(C)=O)c(O)c1`, for which the melting point lay within 57 to 59 °C. Next, `CC(C)(Br)C(=O)NC12CC3CC(CC(C3)C1)C2`: 114 to 115 °C; `CCC1COC(=O)O1` (stereo not given): -45 °C; `O=[N+]([O-])c1cccc(F)c1O`: 92.5 °C. Next, `OCc1ccc(-c2cccnc2)cc1`: 106 to 107 °C; `CC1NC2CCCCCCCC(=O)OC3CCC(CCCCCCCC(=O)OC1CC2)NC3C` (stereo not given): 121 °C. Next, `Cc1ccc2cc3c(ccc4ccccc43)cc2c1`: 152 °C. As to `CCCCCCCCCCCCCCCCCCCCBr`, the melting point was 37.5 °C.

Turning to `CC1(C)C2CCC13CS(=O)(=O)N=C3C2` (stereo not given), the melting point was found to be 227 °C.

As to `N#Cc1ccc(N2N=N2)cc1`, the melting point stood at 70 °C.

Take `COC(=O)c1ccc([N+](=O)[O-])c(C)c1`: the melting point was found to be 81 °C.

Take `COC(=O)Cc1nc(-c2ccccc2)sc1C`: the melting point lay within 42 to 44 °C.

The molecule `CC(=O)CC(=O)c1ccc2ccccc2c1` had a melting point of 78 °C.

As for `COc1ccc2cc(C(=O)c3ccccc3)c(=O)oc2c1`, the melting point was in the range of 150 to 153 °C. Next, `O=Cc1cc(Br)cs1`: 46 to 47 °C; `CCC(C)OC(C)CC` (stereo not given): -100 °C. As to `C[N+](C)(C)CCOP(=O)([O-])OCC(O)CO` (stereo not given), the melting point was 142 °C. Next, `NNS(=O)(=O)c1ccc(-c2ccccn2)s1`: 109 to 111 °C; `BrCc1cc(Br)cc(Br)c1`: 94 °C; `ON=Cc1ccc2c(Br)cccc2c1`: 178 °C. For the molecule `O=Cc1ccc(OC2CCOCC2)cc1`, the melting point lay in the range of 95 to 96 °C.

On to `OCCCCC(O)CO` (stereo not given), for which the melting point was 25 to 32 °C.

In the case of `CCCc1ccc(-c2ccccc2)cc1`, the melting point lay in the range of 15 to 17 °C. For the molecule `CC(C)(Oc1ccc2ccccc2c1)C(=O)O`, the melting point was 123 to 124 °C. `CNC(=O)Oc1ccccc1C1OCCO1`: the melting point came out at 114 °C. Next, `O=C(OC(C(=O)c1ccc2c3c(cccc13)CC2)c1ccccc1)c1ccccc1` (stereo not given): 156 °C.

As for `O=C1Nc2c(Cl)cccc2C1=O`, the melting point came to 190 °C.

Molecule `Cc1cc(C)c2c(c1C)CC2` had a melting point of 20 to 28 °C. The molecule `CC12CCC(C1(C)C)C(CC(Br)Cc1ccccc1)(C1(CC(Br)Cc3ccccc3)C(=O)C3(C)CCC1C3(C)C)C2=O` (stereo not given) had a melting point of 215 °C. `COC(=O)c1ccc(N(C)C)cc1` showed a melting point of 100 °C. Next, `O=c1ncn2nc(Sc3ccccc3)ccc2c1-c1c(Cl)cccc1Cl`: 262 to 265 °C. Next, `O=S(=O)(Cl)c1ccc(Oc2ccccc2)cc1`: 44 °C; `O=[N+]([O-])c1cc(Cl)cc(Cl)c1O`: 122 °C. The molecule `C=CCCCCCCCCC(=O)OCC` displayed a melting point of -38 °C. `O=C(c1ccccc1)c1noc(-c2ccc([N+](=O)[O-])cc2)c1S(=O)(=O)c1ccccc1`: the melting point stood at 165 °C. Next, `Nc1ccc(C/C(=N/O)c2ccc(N)cc2)cc1`: 146 to 147 °C; `N=C(NCCCC(N)C(=O)O)N[N+](=O)[O-]` (stereo not given): 257 °C; `Cc1c(N/N=C2/C(=O)N(c3ccccc3)N=C2C(F)(F)F)c(=O)n(-c2ccccc2)n1C`: 185 °C. In the case of `Cc1nnc(SCC2=C(C(=O)O)N3C(=O)C(NC(=O)Cn4cnnn4)C3SC2)s1` (stereo not given), the melting point turned out to be 198 °C.

For the molecule `O=C1CCC(c2ccccc2)=NN1c1n[nH]c(=S)n1-c1ccccc1`, the melting point lay in the range of 180 to 182 °C. Molecule `Cc1cc(Br)cc(N)c1N` came in with a melting point of 63 to 64 °C. In turn, `NCCCCCCCCCCCCN` displayed a melting point of 70 °C. In turn, `COCCOc1ccccc1S(=O)(=O)NC(=O)Nc1nc(OC)nc(OC)n1` gave a melting point of 130 °C. Next, `CCCCNCC(O)c1ccc(O)cc1` (stereo not given): 124 °C; `Cc1ccc(CCCC(=O)O)cc1`: 57 °C.

`CC(=O)NC(Cc1ccc2c(c1)OCO2)C(=O)O` (stereo not given): the melting point was 92 °C. Next, `O=C(O)c1cc(C(F)(F)F)ccc1N1CCOCC1`: 175 to 177 °C; `N#CC(=NOCC1OCCO1)c1ccccc1`: 77.7 °C. Next, `CCc1ccccc1-n1c(C)nc2ccccc2c1=O`: 81 °C.

`COc1cc2c(cc1OC)C13CCN4CC5=CCOC6CC(=O)N2C1C6C5CC43` (stereo not given) had a melting point of 178 °C. Next, `OCc1cn2ccccc2n1`: 102 to 103 °C. `Ic1ccc(I)nc1` returned a melting point of 155 °C. Next, `CCOC(=O)c1cn(-c2ccc(F)cc2F)c2nc(Cl)c(F)cc2c1=O`: 212 to 215 °C.

Molecule `O=Cc1[nH]ncc1Br` registered a melting point of 80 to 82 °C. Next, `O=C(O)c1cnn(-c2ccccc2)c1C(F)(F)F`: 139 to 141 °C; `Cc1cccc(N(C)C(=S)Oc2ccc3ccccc3c2)c1`: 111 °C.

Consider `CSC(=NOC(=O)N(C)C=C1C=NC=N1)C(=O)N(C)C`, for which the melting point worked out at 252 °C. Next, `O=C1CCC(c2ccc(N=Cc3ccccc3[N+](=O)[O-])cc2)=NN1`: 234 to 236 °C; `O=C(NCCCCCCO)OCC1c2ccccc2-c2ccccc21`: 119 to 120 °C; `ClC1CC2CCC1C2` (stereo not given): -5 °C. The molecule `FC(F)(F)c1ccc(Cl)cc1Cl` had a melting point of -26 °C. Next, `Brc1nc(Br)c(Br)[nH]1`: 208 to 212 °C. Next, `Cc1c(N(C)C)c(=O)n(-c2ccccc2)n1C`: 134 °C; `CCOC(=O)c1cc(=O)c2cc(I)ccc2o1`: 148 to 150 °C. Next, `O=C(c1ccc(O)cc1)c1ccc(O)cc1O`: 197 to 198 °C; `COC(=O)c1cscc1Sc1ccc(Cl)cc1`: 77 to 79 °C. Regarding `O=c1c(O)c(O)c(=O)c1=O`, the melting point was in the range of 331 to 334 °C.

In turn, `BrCc1cccc2nsnc12` registered a melting point of 89 to 92 °C.

Consider `O=[N+]([O-])c1cccc2nsnc12`, for which the melting point is 106 to 110 °C.

`N#C/C(=N/Nc1cc(Cl)ccc1Cl)c1nc(-c2ccccc2)cs1` showed a melting point of 133 °C. Next, `Cc1ccc(N=Nc2ccc(N(C)C)cc2)cc1`: 165 to 167 °C; `O=C(CBr)c1ccco1`: 34 °C; `O=[N+]([O-])c1cccc2c(Br)n[nH]c12`: 175 to 185 °C.

`O=C(N[C@@H](CSC(c1ccccc1)(c1ccccc1)c1ccccc1)C(=O)O)OCC1c2ccccc2-c2ccccc21` showed a melting point of 172 to 177 °C. The molecule `N#Cc1ccc(F)cn1` registered a melting point of 43 °C. Molecule `CN(C)c1ccc(/C=N/n2c(S)nnc2C(F)(F)F)cc1` showed a melting point of 200 °C.

Take `O=C(O)C(CCBr)(c1ccccc1)c1ccccc1`: the melting point was in the range of 135 to 137 °C. Consider `CSc1ccc(CO)cc1`, for which the melting point turned out to be 42 °C. The molecule `Cc1cccc(N/N=C(\C#N)c2nc(C)c(/N=N/c3ccccc3)s2)c1` came in with a melting point of 211 °C. Next, `Cc1csc(=S)n1O`: 88 to 93 °C; `O=S(=O)(Cl)c1ccc(Oc2ccccc2)nc1`: 114 to 116 °C. `Fc1ncccc1-c1ccc(Cl)cn1` showed a melting point of 100 °C. Turning to `O=C=Nc1c(Br)cc(F)cc1Br`, the melting point was 44 °C. Next, `COc1ccc2c3c1OC1C(=O)CCC4(O)C(C2)N(C)CCC314` (stereo not given): 219 °C; `Cc1c(C2(c3cc(C(C)C)c(O)c(CN(CC(=O)O)CC(=O)O)c3C)OC(=O)c3ccccc32)cc(C(C)C)c(O)c1CN(CC(=O)O)CC(=O)O`: 191 °C; `C=CCC(C(=O)NC(N)=O)C(C)C` (stereo not given): 194 °C. Molecule `O=C(CCl)Nc1ccccc1C(F)(F)F` had a melting point of 92 to 94 °C. Next, `COP(=S)(OC)Oc1ccc([N+](=O)[O-])cc1Cl`: 52.5 °C; `COP(=S)(OC)SCC(=O)N(C)C=O`: 25.5 °C.

`CC1(C)CCC(=Cc2ccc(Cl)cc2)C1(O)Cn1cncn1` (stereo not given): the melting point was determined as 140 °C. For the molecule `CC(=O)N1CCc2cc([N+](=O)[O-])ccc21`, the melting point worked out at 177 °C. For `O=C(O)C1CC1(F)F` (stereo not given), the melting point came to 58 °C.

Molecule `c1cncc(-c2ccnc(-c3cccnc3)c2)c1` registered a melting point of 148 °C. Molecule `O=[N+]([O-])c1ccc(S(=O)(=O)Cl)cc1` gave a melting point of 78 °C. On to `O=C(C=Cc1ccc2c(c1)OCO2)c1ccc(O)cc1`, for which the melting point fell in the range of 209 to 210 °C. Consider `ON=Cc1ccccc1O`, for which the melting point is 56 to 59 °C.

Molecule `CCC(C)Br` (stereo not given) displayed a melting point of -112 °C.

As to `CC/C=C(\C)C(=O)O`, the melting point is 24.4 °C. Next, `CC(=O)OC1CCCCC1C(C)(C)C` (stereo not given): 35 °C. Next, `O=[N+]([O-])c1c(Cl)ccc2nsnc12`: 149 to 152 °C; `CCSc1nnc(C(C)(C)C)c(=O)n1N`: 95 °C; `N#C/C(=N\Nc1c(Br)cc(Br)cc1Br)c1nc2ccccc2s1`: 179 °C. In turn, `Cc1ccc(O)c([N+](=O)[O-])n1` returned a melting point of 107 °C. With `CC12C=C(C=O)C(=O)C=C1CCC1C2C(O)CC2(C)C1CCC2(C)O` (stereo not given), the melting point amounted to 210 °C.

In the case of `O=C(Nc1ccc(F)cc1F)c1cccnc1Oc1cccc(C(F)(F)F)c1`, the melting point came out at 160 °C. Take `CC(=O)/C(=C\N)c1ccccc1`: the melting point is 97 °C.

For the origin of these results see a melting point compilation (Tetko et al.).
